Holding throughout (experiment): growth of human tumour cells (NCI), 48 h
The subject of experiment [1] is A498.
For experiment [2], the system named is ACHN.
Experiment [3] has as its system EKVX.
Experiment [4] concerns HOP-62.
The subject of experiment [5] is HOP-92.
Experiment [6] relates to Hs-578T.
Experiment [7] concerns KM12.
In experiment [8] the test system is OVCAR-3.
Experiment [9] concerns OVCAR-5.
Experiment [10] concerns PC-3.
The test system of experiment [11] is RPMI-8226.
Experiment [12] relates to SF-268.
Experiment [13] relates to SK-MEL-5.
The test system of experiment [14] is SR.
The subject of experiment [15] is T47D.
In experiment [16] the test system is UO-31.
The test system of experiment [17] is UACC-62.
The subject of experiment [18] is NCI-H522.
Experiment [19] has as its system RXF 393.

Each structure is given as a SMILES string.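 48-hour exposure; five concentrations; linearly interpolated endpoints. GI50: concentration for 50% inhibition of growth.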 The source made the active and inactive calls. No stated cut-off is given here; in the data, active = GI50 up to about 1.1 µM and inactive = higher. Bounds are passed on as bounds.

`CC1CN=C(N(C)C(=O)Nc2ccc(Cl)c(Cl)c2)S1` (stereo unspecified): the GI50 in experiment [1] is 48.4 µM (inactive); in [2], 11 µM (inactive); in experiment [3], 32.4 µM (inactive); in [4], 21.8 µM (inactive); in experiment [5], 4.76 µM (inactive); in experiment [6], 22.8 µM (inactive). For the same compound, the GI50 in [7] was 32.4 µM (inactive); in experiment [8], 20.5 µM (inactive); in experiment [9] it was 15.2 µM (inactive); in experiment [10], 27.4 µM (inactive); in experiment [11], 31.7 µM (inactive); in experiment [12] it was 27.9 µM (inactive). Further, the GI50 in [13] is 15.7 µM (inactive); in experiment [14] it was 29.2 µM (inactive); in [15], 19.3 µM (inactive); in experiment [16] it was 29.5 µM (inactive).
Regarding `NC(=S)Nc1nc(=S)[nH]c2[nH]ccc12`, the GI50 was > 100 µM (inactive) in experiment [1]; > 100 µM (inactive) in experiment [2]; 94.2 µM (inactive) in experiment [3]; > 100 µM (inactive) in [4]; > 100 µM (inactive) in experiment [5]; 23.4 µM (inactive) in [6]. In addition, the GI50 is 26.2 µM (inactive) in experiment [7]; 29.7 µM (inactive) in [8]; > 100 µM (inactive) in [9]; 74.3 µM (inactive) in experiment [10]; 25.9 µM (inactive) in experiment [11]; 20.2 µM (inactive) in [12]. Also, the GI50 is 15.3 µM (inactive) in experiment [13]; 29.4 µM (inactive) in [14]; 58.2 µM (inactive) in experiment [15]; 91 µM (inactive) in experiment [17]; 66.7 µM (inactive) in experiment [16].
For the compound `Clc1nc(Cl)c(Cc2ccccc2)c(Cl)n1`, the GI50 in experiment [2] was 15.7 µM (inactive); in experiment [3], 19 µM (inactive); in [4], 6.17 µM (inactive); in [6], 2.66 µM (inactive); in experiment [7], 7.87 µM (inactive); in experiment [18], 1.19 µM (inactive). Also, the GI50 in experiment [8] was 2.43 µM (inactive); in experiment [9] it was 21.8 µM (inactive); in experiment [10], 3.7 µM (inactive); in [11] it was 5.32 µM (inactive); in [19], 4.21 µM (inactive); in [12] it was 18.6 µM (inactive). Further, the GI50 in experiment [13] was 2.37 µM (inactive); in experiment [14], 4.26 µM (inactive); in [15], 9.12 µM (inactive); in experiment [17], 3.69 µM (inactive); in experiment [16], 18.2 µM (inactive).
In the case of `COc1ccc(C2Oc3c(cccc3OC)C=C2[N+](=O)[O-])cc1OC` (stereo unspecified), the GI50 in experiment [2] is 10.4 µM (inactive); in [3] it was 45.2 µM (inactive); in experiment [4] it was 21.2 µM (inactive); in experiment [6] it was 6.25 µM (inactive); in [7], 9.98 µM (inactive); in [18], 2.97 µM (inactive). For the same compound, the GI50 in experiment [8] is 11.9 µM (inactive); in experiment [9], 13.8 µM (inactive); in [10], 4.08 µM (inactive); in experiment [11], 32.3 µM (inactive); in experiment [19], 2.57 µM (inactive); in experiment [12], 15.9 µM (inactive). In addition, the GI50 in experiment [13] was 4.14 µM (inactive); in experiment [14] it was 2.59 µM (inactive); in [15] it was 12.2 µM (inactive); in [17], 4.16 µM (inactive); in experiment [16], 14.7 µM (inactive).
As for `CCOC(=O)c1cccc([N+](=O)[O-])c1N`, the GI50 in experiment [1] is 66.2 µM (inactive); in experiment [2] it was > 100 µM (inactive); in [3] it was 6.11 µM (inactive); in [4] it was > 100 µM (inactive); in experiment [5] it was > 100 µM (inactive); in experiment [6], 41.2 µM (inactive). Moreover, the GI50 in [7], in experiment [18], in experiment [8], in experiment [9], in experiment [10] and in experiment [11] was > 100 µM (inactive) each time. Further, the GI50 in [13], in experiment [14], in experiment [15], in experiment [17] and in experiment [16] was > 100 µM (inactive) in each case.
Turning to `CC(O)C1(CNc2cc(Cl)nc(N)n2)CCC1` (stereo unspecified), the GI50 in experiment [2] is > 100 µM (inactive); in experiment [3], 59.3 µM (inactive); in experiment [4], > 100 µM (inactive); in [5] it was > 100 µM (inactive); in experiment [6], > 100 µM (inactive); in experiment [7], > 100 µM (inactive). The GI50 is > 100 µM (inactive) in experiment [18]; > 100 µM (inactive) in experiment [8]; > 100 µM (inactive) in [9]; > 100 µM (inactive) in experiment [10]; > 100 µM (inactive) in [11]; 24.2 µM (inactive) in experiment [19]. Moreover, the GI50 in experiment [13] was 70.1 µM (inactive); in experiment [14] it was > 100 µM (inactive); in [15], 33.3 µM (inactive); in experiment [17], 89.9 µM (inactive); in experiment [16], > 100 µM (inactive).
Regarding `C=CCNC(=S)N/C=C(\C(=O)OCC)C(=O)C(=O)OCC`, the GI50 in [2], in experiment [3], in [4], in experiment [6], in [7] and in experiment [18] was > 100 µM (inactive) throughout. For the same compound, the GI50 in experiment [8], in experiment [9], in experiment [10], in experiment [11], in [19] and in [12] was > 100 µM (inactive) each time. Further, the GI50 in experiment [13], in experiment [14], in [15], in [17] and in experiment [16] was > 100 µM (inactive) in each case.
With `COc1cc(/C=C/C(=O)CC(=O)/C=C/c2cc(C)c(O)c(OC)c2)cc(C)c1O`, the GI50 in experiment [1] was > 100 µM (inactive); in experiment [2], > 100 µM (inactive); in [3] it was > 100 µM (inactive); in experiment [4], > 100 µM (inactive); in experiment [5], < 0.01 µM (active); in experiment [6] it was > 100 µM (inactive). The GI50 was > 100 µM (inactive) in [7]; > 100 µM (inactive) in experiment [18]; 83.4 µM (inactive) in experiment [8]; > 100 µM (inactive) in experiment [9]; > 100 µM (inactive) in [10]; 37.6 µM (inactive) in experiment [11]. The GI50 is > 100 µM (inactive) in experiment [12]; > 100 µM (inactive) in [13]; 6.82 µM (inactive) in experiment [14]; > 100 µM (inactive) in experiment [15]; > 100 µM (inactive) in [17]; > 100 µM (inactive) in [16].
`O=C(CCc1ccc(O)c(O)c1)c1ccc(O)c(O)c1O`: the GI50 was 17.9 µM (inactive) in [1]; 14.3 µM (inactive) in experiment [2]; 20 µM (inactive) in [3]; 22.3 µM (inactive) in experiment [5]; 23.6 µM (inactive) in experiment [6]; 17.3 µM (inactive) in experiment [7]. Also, the GI50 in experiment [18] was 11.9 µM (inactive); in experiment [9] it was 21.2 µM (inactive); in experiment [10] it was 34.5 µM (inactive); in experiment [12] it was 16.6 µM (inactive); in experiment [13], 17.3 µM (inactive); in experiment [14], 24.9 µM (inactive). Also, the figures for the GI50 in [15], in experiment [17] and in experiment [16] were 23.7 µM (inactive), 25.9 µM (inactive) and 52.4 µM (inactive), respectively.

The record behind these values is ChEMBL document CHEMBL1201862, “PubChem BioAssay data set” (2004).
